Laboratory results reported in US11998602B2, “Methods for promoting myelination and for treating demyelinating diseases” (The Scripps Research Institute, priority 2018, dated 2024).

What was measured:
OPCs = assay: Mitochondrial respiration assay (oxygen consumption rate, XFe96 Seahorse); format: cell-based, rat; details: 2 mM taurine, day 6, basal and benztropine- or miconazole-induced differentiation conditions
Method: Mitochondrial respiration assay. Cellular oxygen consumption rate (OCR) was measured using an XFe96 extracellular flux analyzer (Seahorse Biosciences). OPCs were seeded at 40,000 cells/well in PLP-coated XFe96 plates and cultured for 6 days with taurine (2 and 20 mM) alone, or together with miconazole and benztropine. Cells were then incubated in assay medium (DMEM with 20 mM glucose, 5 mM pyruvate and 5 mM sodium bicarbonate, pH˜7.4) for at least 30 min prior to the assay. Media to deliver a final assay well concentration corresponding to of 1 μM oligomycin, 2 μM carbonyl cyanide 4-(trifluoromethoxy) phenylhydrazone (FCCP) and 2 μM rotenone+2 μM antimycin A were pre-loaded into the compound delivery ports of the system. The assay starts with the recording of the basal OCR, followed by recording of the OCR in response to different compounds that constitute the Mitochondria Stress Test (Seahorse Biosciences, Agilent). Once the basal OCR was measured, the compounds were added sequentially and the effects on OCR measured 3 times every 5 min. Oligomycin blocks ATP synthase; FCCP dissipates the inner membrane potential enabling maximum electron flux through the electron transport chain (ETC); rotenone+antimycin A inhibit complexes I and III, respectively, thereby blocking the entry of electrons in the ETC and shutting down mitochondrial activity.

[1] = tested on: primary mouse cortical neurons co-cultured with OPCs; assay: In vitro OL maturation assay, MBP-colocalization with co-cultured axons; format: cell-based, rat
Method: In vitro OL maturation assay. Cortical and hippocampal tissue was dissected from C57BL/6 mice at embryonic day 14 and dissociated in 0.5% Trypsin with 100 U/mL DNase I diluted in HBSS (+/+) for 10 min at 37° C. Reaction was stopped by supplementing to a final concentration of 10% v/v FBS, 100 μg/mL Soybean Trypsin Inhibitor and 10 U/mL DNase I. Cells were resuspended in plating media consisting of equal volumes of FCS, HBSS (+/+), High-Glucose DMEM with L-glutamine, and F-12 with L-glutamine, then plated onto acid pre-washed German glass coverslips coated with 50 μg/mL Poly-D-Lysine and 20 μg/mL Laminin at a density of 50,000 cells/cm^2. Cells were allowed to attach for 2 hrs and then coverslips were rinsed with PBS before being transferred to a 24-well plate containing 0.5 mL growth media consisting of: Neurobasal medium, B27 supplement (Gibco), 0.5× Glutamax (Thermo), 5 μg/mL gentamycin and 5 μM glutamic acid. Half of the cell media was replaced after 3 DIV with supplemental growth media not containing glutamic acid^47. After 5 DIV, rat-derived cortical OPCs were added to the neuronal culture at a density of 5,000 cells/cm^2. Co-culture media used to resuspend and plate OPCs consisting of a 1:3 mixture of neuronal growth supplement (as above) and oligodendrocyte differentiation media, containing DMEM/F-12 (with L-glutamine), insulin-free N2 supplement, 1× Glutamax, 1×MEM non-essential amino acids, 1× β-mercaptoethanol, 2 ng/mL PDGF and 5 μg/mL gentamycin. All drugs and taurine co-treatment were added once to culture upon plating of OPCs at the following concentrations: 0.5 μM benztropine, 1.0 μM miconazole, each with or without 2 mM taurine. Cultures were maintained by replacing half of the media every three days, maintaining an equivalent concentration of taurine throughout in appropriate wells. […] Co-localization was quantified within regions of interest delineated as the periphery of individual oligodendrocytes. The co-localization index (adapted from a previously described method^48) was calculated as total proportion of co-localized 3D surface area between Tuj1 (neuron) and oligodendrocyte (MBP) over total Tuj1 (neuronal process) area enclosed within each oligodendrocyte process tree as the selected region of interest (ROI, see FIG. 3B″). Mean colocalization values for each condition were normalized to the DMSO condition mean analyzed statistically using Prism software (GraphPad, v7) for two-way ANOVA comparisons (Drug Treatment×Taurine Supplement) with Tukey post-tests for statistical significance. […]

NCCS(=O)(=O)O [taurine, 2-aminoethanesulfonic acid]
Oxygen consumption rate (OCR) values (OPCs): significantly increase | MBP-colocalization with axons, treatment alone vs. DMSO (Tukey post hoc) ([1]; 0.5 μM benztropine, 1.0 μM miconazole or 2 mM taurine alone, 14 days): no significant difference | Index of MBP-colocalization with axons ([1]; 2 mM taurine in cultures treated with benztropine or miconazole, 14 days of neuron-OPC co-culture): significantly increase
